The values below come from US20230137932A1, “CYANO-PYRIMIDINE INHIBITORS OF EGFR/HER2” (Dana-Farber Cancer Institute, Inc., priority 2020, published 2023).

Broadly, the GI50 is the concentration at which growth is held to half of that of the control.

One test deals with Ba/F3 parental. Kind of test: Ba/F3 cell viability (MTS), parental cells. The test is classed as cell-based, murine. The settings on record: Mus musculus, BaF3, Table 3, 72 hours.
Another test deals with T1, EGFR SVD (Homo sapiens, UniProt P00533, INS770SVD).
T1 construct: expressed in transfected cells; host or cells: Ba/F3 cells
The test is described as follows: Ba/F3 cell viability (MTS), EGFR SVD. It is filed as cell-based. Particulars: Ba/F3 cells, 72 hours.

A further test addresses T2, EGFR ASV (Homo sapiens, UniProt P00533, INS769ASV).
T2 construct: expressed in transfected cells; host or cells: Ba/F3 cells
The test is described as follows: Ba/F3 cell viability (MTS), EGFR ASV. The test is classed as cell-based. The settings on record: Ba/F3 cells, 72 hours.

A further test addresses exon19 (Homo sapiens, UniProt P00533, cells depend on it, form not given). The test is described as follows: Ba/F3 cell viability (MTS), exon19. It is filed as cell-based. Particulars: Table 5.
For another test, the target named is H (Homo sapiens, UniProt P00533, cells depend on it, form not given). The test is described as follows: Ba/F3 cell viability (MTS), H. The test is classed as cell-based. The settings on record: Table 5.
The target in another test is VC (Homo sapiens, UniProt P04626, DELINS776-776VC, cells depend on it). Kind of test: Ba/F3 cell viability (MTS), VC. The test is classed as cell-based. Particulars: Table 5.
Another test has as its target WLV (Homo sapiens, UniProt P04626, DELINS774-774WLV, cells depend on it). The test is described as follows: Ba/F3 cell viability (MTS), WLV. The test is classed as cell-based. Particulars: Table 5.

Molecules are shown by their SMILES. Read-outs that look alike come from different tables or passages of the source.

T1 sequence (P00533 with tags, fused parts or gaps INS770SVD): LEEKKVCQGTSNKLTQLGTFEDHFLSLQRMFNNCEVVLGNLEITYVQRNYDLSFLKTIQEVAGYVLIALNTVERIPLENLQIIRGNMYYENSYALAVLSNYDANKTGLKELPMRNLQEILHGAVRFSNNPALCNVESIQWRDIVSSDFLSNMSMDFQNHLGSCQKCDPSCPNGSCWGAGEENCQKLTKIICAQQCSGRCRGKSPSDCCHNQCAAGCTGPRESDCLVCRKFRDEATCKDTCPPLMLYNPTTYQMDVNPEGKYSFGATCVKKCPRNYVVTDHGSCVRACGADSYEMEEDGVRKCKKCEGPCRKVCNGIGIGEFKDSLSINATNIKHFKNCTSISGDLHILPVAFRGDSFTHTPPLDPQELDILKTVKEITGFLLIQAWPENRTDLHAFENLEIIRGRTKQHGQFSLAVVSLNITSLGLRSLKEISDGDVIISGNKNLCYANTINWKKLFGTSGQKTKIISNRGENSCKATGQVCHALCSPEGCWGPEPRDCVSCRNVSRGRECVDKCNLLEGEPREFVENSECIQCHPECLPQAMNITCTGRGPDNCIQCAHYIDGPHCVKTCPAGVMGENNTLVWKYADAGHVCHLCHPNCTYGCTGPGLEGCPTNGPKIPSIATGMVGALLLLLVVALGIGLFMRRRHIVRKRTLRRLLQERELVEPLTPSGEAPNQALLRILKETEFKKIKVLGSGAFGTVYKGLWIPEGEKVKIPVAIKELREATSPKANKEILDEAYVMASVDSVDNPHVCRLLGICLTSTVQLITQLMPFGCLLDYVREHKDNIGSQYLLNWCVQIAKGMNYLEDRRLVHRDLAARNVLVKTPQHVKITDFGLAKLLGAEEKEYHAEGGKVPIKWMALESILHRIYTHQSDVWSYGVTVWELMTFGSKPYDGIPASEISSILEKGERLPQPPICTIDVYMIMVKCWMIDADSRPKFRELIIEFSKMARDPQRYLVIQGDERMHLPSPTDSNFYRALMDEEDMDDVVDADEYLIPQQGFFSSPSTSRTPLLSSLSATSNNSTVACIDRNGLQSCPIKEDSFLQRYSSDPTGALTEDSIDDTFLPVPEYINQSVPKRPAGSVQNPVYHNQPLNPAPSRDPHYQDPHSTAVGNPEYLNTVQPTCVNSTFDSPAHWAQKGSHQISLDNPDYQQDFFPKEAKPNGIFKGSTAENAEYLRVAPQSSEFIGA
Sequence of WLV (P04626 with tags, fused parts or gaps DELINS774-774WLV): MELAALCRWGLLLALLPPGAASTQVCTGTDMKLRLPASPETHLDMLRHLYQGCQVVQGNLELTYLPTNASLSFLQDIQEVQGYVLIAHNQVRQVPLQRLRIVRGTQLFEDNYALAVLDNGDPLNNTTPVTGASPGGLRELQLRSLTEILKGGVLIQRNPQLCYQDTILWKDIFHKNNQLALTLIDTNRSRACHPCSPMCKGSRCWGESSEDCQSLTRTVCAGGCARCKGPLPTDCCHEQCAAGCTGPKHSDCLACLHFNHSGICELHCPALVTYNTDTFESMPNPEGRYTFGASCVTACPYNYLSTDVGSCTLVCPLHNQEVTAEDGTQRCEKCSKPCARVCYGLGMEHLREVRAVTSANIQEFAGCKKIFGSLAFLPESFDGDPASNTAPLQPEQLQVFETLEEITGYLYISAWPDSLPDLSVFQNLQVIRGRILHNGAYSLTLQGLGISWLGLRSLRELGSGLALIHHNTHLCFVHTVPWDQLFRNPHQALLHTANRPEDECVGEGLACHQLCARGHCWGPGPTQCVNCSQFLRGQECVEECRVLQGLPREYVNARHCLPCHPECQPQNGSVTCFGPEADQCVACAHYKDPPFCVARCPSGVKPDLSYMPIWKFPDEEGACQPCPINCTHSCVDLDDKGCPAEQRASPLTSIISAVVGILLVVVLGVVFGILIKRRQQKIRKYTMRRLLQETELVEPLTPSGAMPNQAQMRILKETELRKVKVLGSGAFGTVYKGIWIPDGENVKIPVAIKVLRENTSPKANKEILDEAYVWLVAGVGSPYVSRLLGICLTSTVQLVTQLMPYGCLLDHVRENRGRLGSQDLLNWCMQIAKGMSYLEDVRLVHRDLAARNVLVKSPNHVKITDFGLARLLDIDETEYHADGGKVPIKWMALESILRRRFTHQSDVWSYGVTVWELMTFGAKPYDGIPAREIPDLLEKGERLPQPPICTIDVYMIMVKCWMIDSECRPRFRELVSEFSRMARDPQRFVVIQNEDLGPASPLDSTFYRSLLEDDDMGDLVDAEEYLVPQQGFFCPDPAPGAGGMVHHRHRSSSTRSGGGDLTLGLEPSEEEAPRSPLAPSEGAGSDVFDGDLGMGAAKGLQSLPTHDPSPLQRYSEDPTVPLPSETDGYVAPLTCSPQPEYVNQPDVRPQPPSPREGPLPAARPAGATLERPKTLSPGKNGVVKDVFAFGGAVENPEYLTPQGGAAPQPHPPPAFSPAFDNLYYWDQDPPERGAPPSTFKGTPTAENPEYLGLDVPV
Sequence of exon19 (P00533 with tags, fused parts or gaps DEL746-750): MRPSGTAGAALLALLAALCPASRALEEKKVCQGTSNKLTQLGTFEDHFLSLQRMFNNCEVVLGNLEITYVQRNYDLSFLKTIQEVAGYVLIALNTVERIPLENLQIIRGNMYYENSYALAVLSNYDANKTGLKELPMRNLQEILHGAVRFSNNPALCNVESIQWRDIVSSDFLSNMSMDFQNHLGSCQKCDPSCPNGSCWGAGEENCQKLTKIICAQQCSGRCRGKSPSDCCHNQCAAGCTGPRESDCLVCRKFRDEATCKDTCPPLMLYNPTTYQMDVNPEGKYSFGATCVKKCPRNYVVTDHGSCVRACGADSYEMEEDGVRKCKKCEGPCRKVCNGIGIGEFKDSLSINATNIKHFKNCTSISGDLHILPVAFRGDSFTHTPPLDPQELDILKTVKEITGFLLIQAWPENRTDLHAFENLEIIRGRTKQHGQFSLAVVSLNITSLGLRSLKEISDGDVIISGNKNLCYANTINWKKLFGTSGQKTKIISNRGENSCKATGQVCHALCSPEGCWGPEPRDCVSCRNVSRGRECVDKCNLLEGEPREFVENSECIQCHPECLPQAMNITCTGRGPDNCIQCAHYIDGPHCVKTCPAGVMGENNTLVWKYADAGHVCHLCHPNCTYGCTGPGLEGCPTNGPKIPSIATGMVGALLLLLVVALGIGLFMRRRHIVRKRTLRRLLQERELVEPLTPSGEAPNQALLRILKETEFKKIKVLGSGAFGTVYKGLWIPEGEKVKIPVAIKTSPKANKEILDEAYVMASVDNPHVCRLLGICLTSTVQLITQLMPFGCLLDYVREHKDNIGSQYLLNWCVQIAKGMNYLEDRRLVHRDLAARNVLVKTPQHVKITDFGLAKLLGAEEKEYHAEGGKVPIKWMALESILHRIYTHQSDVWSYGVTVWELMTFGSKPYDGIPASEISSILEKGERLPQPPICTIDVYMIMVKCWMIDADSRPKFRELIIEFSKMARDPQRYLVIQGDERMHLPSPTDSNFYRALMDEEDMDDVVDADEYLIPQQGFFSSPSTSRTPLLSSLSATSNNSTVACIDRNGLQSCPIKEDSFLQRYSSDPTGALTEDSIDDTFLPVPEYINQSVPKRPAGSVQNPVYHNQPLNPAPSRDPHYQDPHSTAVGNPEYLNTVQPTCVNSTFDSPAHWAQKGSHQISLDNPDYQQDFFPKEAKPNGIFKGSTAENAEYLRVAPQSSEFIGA
Sequence of VC (P04626 with tags, fused parts or gaps DELINS776-776VC): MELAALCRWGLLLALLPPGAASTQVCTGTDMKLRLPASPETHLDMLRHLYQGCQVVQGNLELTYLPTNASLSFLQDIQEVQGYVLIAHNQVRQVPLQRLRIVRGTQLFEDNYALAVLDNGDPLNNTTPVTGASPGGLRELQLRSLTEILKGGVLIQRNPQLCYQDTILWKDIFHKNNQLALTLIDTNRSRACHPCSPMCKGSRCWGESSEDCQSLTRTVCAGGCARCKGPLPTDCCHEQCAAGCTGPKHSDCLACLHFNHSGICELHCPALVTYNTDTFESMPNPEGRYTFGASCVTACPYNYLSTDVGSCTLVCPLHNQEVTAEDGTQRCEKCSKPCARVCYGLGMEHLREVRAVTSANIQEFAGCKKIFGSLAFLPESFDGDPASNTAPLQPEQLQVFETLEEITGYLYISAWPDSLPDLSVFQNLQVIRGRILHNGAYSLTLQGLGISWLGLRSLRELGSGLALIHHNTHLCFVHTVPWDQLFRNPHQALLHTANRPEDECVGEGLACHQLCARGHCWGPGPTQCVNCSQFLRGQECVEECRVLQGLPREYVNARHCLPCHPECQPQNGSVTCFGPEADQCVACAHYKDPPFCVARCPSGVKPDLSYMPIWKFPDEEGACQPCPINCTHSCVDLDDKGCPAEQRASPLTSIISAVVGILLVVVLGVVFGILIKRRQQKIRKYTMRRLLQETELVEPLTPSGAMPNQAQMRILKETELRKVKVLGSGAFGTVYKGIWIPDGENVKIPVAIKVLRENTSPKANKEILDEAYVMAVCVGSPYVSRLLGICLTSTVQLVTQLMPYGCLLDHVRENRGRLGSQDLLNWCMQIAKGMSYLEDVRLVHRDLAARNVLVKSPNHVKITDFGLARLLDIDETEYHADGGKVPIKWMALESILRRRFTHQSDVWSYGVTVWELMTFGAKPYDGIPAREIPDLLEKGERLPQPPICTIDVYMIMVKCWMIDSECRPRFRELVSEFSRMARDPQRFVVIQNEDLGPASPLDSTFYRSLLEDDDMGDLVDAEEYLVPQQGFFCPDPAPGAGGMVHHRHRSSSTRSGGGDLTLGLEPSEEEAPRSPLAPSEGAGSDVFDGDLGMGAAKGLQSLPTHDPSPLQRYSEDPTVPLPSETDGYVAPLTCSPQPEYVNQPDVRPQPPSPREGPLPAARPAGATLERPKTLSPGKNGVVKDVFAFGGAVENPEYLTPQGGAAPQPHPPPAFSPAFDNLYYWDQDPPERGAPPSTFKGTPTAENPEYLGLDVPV
Method for Ba/F3 parental: (§1) The IC50 values of the compounds provided herein were measured against kinases in Ba/F3 cells.
(§2) For assays with Ba/F3 cells, 3000 cells were seeded for per well in 96-well plates and were exposed to indicated compounds with a concentration of 3.3 to 10 μM for 72 hours.
Method for EGFR ASV: as §1, §2
Method for EGFR SVD: as §1, §2
Method for H: as §1, §2
Method for VC: as §1, §2
Method for WLV: as §1, §2
Method for exon19: as §1, §2

For `C=CC(=O)Nc1cc(Nc2ncc(C#N)c(NC34CC(C3)C4)n2)c(OC)cc1N(C)CCN(C)C` [Compound 013, N-(5-((4-(bicyclo[1.1.1]pentan-1-ylamino)-5-cyanopyrimidin-2-yl)amino)-2-((2-(dimethylamino)ethyl)(methyl)amino)-4-methoxyphenyl)acrylamide], the IC50 with Ba/F3 parental was 4580 nM; on EGFR SVD (Table 2, read-out: Ba/F3 IC50 SVD), 6.1 nM; at EGFR SVD (Table 4, read-out: EGFR Ba/F3 SVD), 44.7 nM; on EGFR ASV (Table 2, read-out: Ba/F3 IC50 ASV), 5.11 nM; on EGFR ASV (Table 4, read-out: EGFR Ba/F3 ASV), 19.3 nM.

In the case of `C=CC(=O)Nc1cc(Nc2ncc(C#N)c(Nc3cccc(C)c3)n2)c(OC)cc1N(C)CCN(C)C` [Compound 014, N-(5-((5-cyano-4-(m-tolylamino)pyrimidin-2-yl)amino)-2-((2-(dimethyl-amino)ethyl)(methyl)amino)-4-methoxyphenyl)acrylamide], the IC50 in the test with Ba/F3 parental turned out to be 7380 nM.

Consider `C=CC(=O)Nc1cc(Nc2ncc(C#N)c(NC34CC(C(F)F)(C3)C4)n2)c(OC)cc1N(C)CCN(C)C` [Compound 015, N-(5-(5-cyano-4-(3-(difluoromethyl)bicycle[1.1.1]pentan-1-ylamino)-pyrimidin-2-ylamino)-2-((2-(dimethylamino)ethyl)(methyl)amino)-4-methoxyphenyl)-acrylamide], for which the IC50 with Ba/F3 parental was 6260 nM.

Regarding `C=CC(=O)Nc1cc(Nc2ncc(C#N)c(NC3C(C)C4CCC3C4(C)C)n2)c(OC)cc1N(C)CCN(C)C` (stereo not shown) [Compound 016, N-(5-((5-cyano-4-((3,7,7-trimethylbicyclo[2.2.1]heptan-2-yl)amino)-pyrimidin-2-yl)amino)-2-((2-(dimethylamino)ethyl)(methyl)amino)-4-methoxyphenyl)-acrylamide], in the test with Ba/F3 parental, the IC50 is 4340 nM.

With `C=CC(=O)Nc1cc(Nc2nccc(NC34CC(C3)C4)n2)c(OC)cc1N(C)CCN(C)C` [Compound 017, N-(5-((4-(bicyclo[1.1.1]pentan-1-ylamino)pyrimidin-2-yl)amino)-2-((2-(dimethylamino)ethyl)(methyl)amino)-4-methoxyphenyl)acrylamide], the IC50 with Ba/F3 parental turned out to be 2300 nM.

For the compound `C=CC(=O)Nc1cc(Nc2ncc(OC)c(NC34CC(C3)C4)n2)c(OC)cc1N(C)CCN(C)C` [Compound 018, N-(5-((4-(bicyclo[1.1.1]pentan-1-ylamino)-5-methoxypyrimidin-2-yl)amino)-2-((2-(dimethylamino)ethyl)(methyl)amino)-4-methoxyphenyl)acrylamide], in the test on Ba/F3 parental, the IC50 came out at 9220 nM.

With `C=CC(=O)Nc1cc(Nc2ncc(C3CC3)c(NC34CC(C3)C4)n2)c(OC)cc1N(C)CCN(C)C` [Compound 019, N-(5-((4-(bicyclo[1.1.1]pentan-1-ylamino)-5-cyclopropylpyrimidin-2-yl)amino)-2-((2-(dimethylamino)ethyl)(methyl)amino)-4-methoxyphenyl)acrylamide], in the test on Ba/F3 parental, the IC50 is 4250 nM.

For `C=CC(=O)Nc1cc(Nc2ncc(C#N)c(NC3CCC3)n2)c(OC)cc1N(C)CCN(C)C` [Compound 020], the IC50 in the test with Ba/F3 parental was 5930 nM.

On to `C=CC(=O)Nc1cc(Nc2ncc(C#N)c(N3CCC3)n2)c(OC)cc1N(C)CCN(C)C` [Compound 021, N-(5-(4-(azetidin-1-yl)-5-cyanopyrimidin-2-ylamino)-2-((2-(dimethyl-amino)ethyl)(methyl)amino)-4-methoxyphenyl)acrylamide], for which the IC50 in the test on Ba/F3 parental turned out to be 6040 nM.

In the case of `C=CC(=O)Nc1cc(Nc2ncc(C#N)c(Nc3ccc(Oc4ccn5ccnc5c4)c(C)c3)n2)c(OC)cc1N(C)CCN(C)C` [Compound 022], the concentration for 50% growth inhibition (GI50) at exon19 amounted to 0.948 nM; at H, 28.5 nM; on VC, 9.56 nM; on WLV, 61.3 nM.

Take `C=CC(=O)Nc1cc(Nc2nc(Nc3ccc(Oc4ccn5ccnc5c4)c(C)c3)ncc2C#N)c(OC)cc1N(C)CCN(C)C` [Compound 027]: the GI50 was determined as 44.7 nM at exon19, 444 nM at H, 317 nM at VC and 461 nM on WLV.

On to `CCC(=O)Nc1cc(Nc2ncc(C#N)c(NC34CC(C3)C4)n2)c(OC)cc1N(C)CCN(C)C` [Compound 028, N-(5-((4-(bicyclo[1.1.1]pentan-1-ylamino)-5-cyanopyrimidin-2-yl)amino)-2-((2-(dimethylamino)ethyl)(methyl)amino)-4-methoxyphenyl)propionamide], for which the IC50 in the test with Ba/F3 parental was determined as 10500 nM.

With `C=CC(=O)Nc1cc(Nc2ncc(C#N)c(Nc3ccc(Oc4ccn5ccnc5c4)c(C)c3)n2)c(OC)cc1N(C)C` [Compound 029], in the test with Ba/F3 parental, the IC50 was 8720 nM.

For `C=CC(=O)Nc1cc(Nc2ncc(C#N)c(Nc3ccc(Oc4ccn5ccnc5c4)c(C)c3)n2)c(OC)cc1N1CC(N(C)C)C1` [Compound 030], the IC50 with Ba/F3 parental came out at 9940 nM.

Turning to `C=CC(=O)Nc1cc(Nc2ncc(C#N)c(NC34CC(CN(C)C)(C3)C4)n2)c(OC)cc1N1CCOCC1` [Compound 031], the IC50 in the test on Ba/F3 parental came to 8050 nM.
